Non-standard residues stand in square brackets, D forms with d. Residues, ends and D or L forms follow the SMILES beside them. Aun = NCCCCCCCCCCC(=O)O
B1: BPI: protein isolated from the granules of mammalian polymorphonuclear leukocytes (protein, UniProt P17213 32-487, looked up)
Bactericidal …: VNPGVVVRISQKGLDYASQQGTAALQKELKRIKIPDYSDSFKIKHLGKGHYSFYSMDIREFQLPSSQISMVPNVGLKFSISNANIKISGKWKAQKRFLKMSGNFDLSIEGMSISADLKLGSNPTSGKPTITCSSCSSHINSVHVHISKSKVGWLIQLFHKKIESALRNKMNSQVCEKVTNSVSSELQPYFQTLPVMTKIDSVAGINYGLVAPPATTAETLDVQMKGEFYSENHHNPPPFAPPVMEFPAAHDRMVYLGLSDYFFNTAGLVYQEAGVLKMTLRDDMIPKESKFRLTTKFFGTFLPEVAKKFPNMKIQIHVSASTPPHLSVQPTGLTFYPAVDVQAFAVLPNSSLASLFLIGMHTTGSMEVSAESNRLVGELKLDRLLLELKHSNIGPFPVELLQDIMNYIVPILVLPRVNEKLQKGFPLPTPARVQLYNVVLQPHQNFLLFGADVVYK

Assays:
Candida albicans, SLU-1 = assay: 28-day comparative survival efficacy study in mice systemically infected with Candida albicans; assay type: in vivo, male DBA/2 mice; conditions: mice infected iv with C. albicans SLU-1; two doses less than 5 mg/kg; initial experiments (p>0.5)
Procedure: Derivatized peptide-based constructs are tested for activity upon oral administration (oral activity) in a 28-day comparative survival efficacy study in mice systemically infected with Candida albicans. Specifically, male DBA/2 mice (Charles River Laboratories) six weeks of age are dosed with 7.9×10^4 Candida albicans, SLU-1 in 100 μL intravenously via the tail vein in a single dosage on day zero (0). However, other routes of administration, including intraperitoneal (ip) and subcutaneous (sc) routes may be administered. Amphotericin B will provide complete protection at 0.5 mg/kg qod (100% survival). Mortality data will be subjected to Kaplan-Meier survival analysis. All treatment groups may be considered statistically significant vs. saline at p values <0.05.
Treatment begins immediately thereafter with 400 μL oral gavage of either 0.5% dextrose, or derivative compound in 0.5% dextrose at various dosage levels (e.g., 10 mg/kg or 20 mg/kg) according to a prescribed dosing regimen (e.g. every other day for a total of eight times). Amphotericin B (Fungizone®) is administered intravenously at 0.5 mg/kg as a positive control every other day for a total of eight times. Twice-day monitoring (once daily on weekends and holidays) for mortality is performed. The animals treated with antiflngal derivative compound show improvement in mortality compared with the dextrose-treated controls, preferably statistically significant improvement (p-value of […]).

Candida albicans SLU-1 = assay: Radial diffusion assay; assay type: cell-based; conditions: 30 mm^2 area of growth inhibition, calculated by PROBIT analysis
Procedure: In the radial diffusion assay procedures, the CA-1 cultures and derivatized peptide solutions were prepared as in the broth microdilution assay procedure described above, i.e., CA-1 was grown to exponential phase in SDB. Ten (10) mL of molten underlayer agarose comprising 3% Sabouraud Dextrose broth, 1% agarose (Pharmacia, Piscataway, N.J.), 0.02% Tween 20, and 10 mM sodium phosphate at pH 7.4, was added to polystyrene tubes and maintained in a 56° C. water bath until the addition of yeast. Tubes were cooled to approximately 45° C., yeast were added to give a final concentration of 1×10^6 CFU/mL, and the tubes were mixed again by inverting. The contents were poured into leveled, square petri dishes and distributed evenly. […] A series of wells were punched into the hardened agarose using a sterile 3 mm punch attached to a vacuum apparatus to achieve a uniform, 3 mm diameter well.
Derivatized peptide sequences to be assayed were 2-fold serially diluted in 10 mM Dulbecco's PBS (D-PBS) starting from a concentration of approximately […]. Five μL of each dilution were added to each well and the plates were incubated at 37° C. for 3 hours to allow for complete diffusion of the test compounds. An overlayer of 10 mL of molten agarose comprising 6% Sabouraud Dextrose broth, 1% agarose, and 10 mM sodium phosphate, pH 7.4, (at approximately 45° C.) was then added and plates were incubated overnight at 37° C. Following this overnight incubation, a dilute Coomassie solution was poured into the plates and allowed to stain for 24 hours to enhance visualization of the zones.
Clear zones of growth inhibition around each well were measured with calipers. The actual area of growth inhibition (mm^2) was calculated by subtracting the area of the well. Table II below sets out the results of the radial diffusion assays for a series of tested peptide-based constructs in terms of the number of picomoles (pmol) of compound required to establish a 30 mm^2 area of growth inhibition of Candida albicans SLU-1 calculated by PROBIT analysis (e.g., calculated from regression of the linear portion of log-concentration dose-response curve, log pmol/well vs. net area of inhibition).

[1] = tested on: Candida albicans designated CA-1, Strain SLU-1; assay type: cell-based; conditions: designated CA-1, Strain SLU-1, 24 h
Procedure: In each broth microdilution assay screening procedure, a colony of Candida albicans designated CA-1, Strain SLU-1 that was received from the laboratories of G. Matuschak and A. Lechner, St. Louis University Hospital, St. Louis, Mo., where the strain was maintained, was inoculated into a tube containing 5 mL Sabouraud Dextrose broth (2% dextrose, 1% neopeptone) and incubated at 37° C. with shaking. The overnight culture was diluted 1:50 into 5 ml of fresh broth and incubated for 3 hours at 37° C. to exponential phase growth. Organisms were pelleted by centrifugation in a Beckman J-6M centrifuge for 5 minutes at 3000 rpm (1500×g) and the pellets were resuspended in 5 mL phosphate buffered saline (PBS) and the optical density (OD) at 570 nm was determined. On the basis of the determination that one OD unit equals 3×10^7 colony forming units/mL (CFU/mL), yeast cells were diluted to 5×10^3 CFU/mL in Sabouraud Dextrose broth (SBD).
Derivatized peptide sequences based on Domain III of BPI to be screened which were originally constituted in Dulbecco's-PBS, were two-fold serially diluted in SDB starting from a concentration of 128 μg/mL. Equal volumes (100 μL) of yeast suspension as prepared above and derivatized peptide solution were added to wells of a 96-well sterile, flat bottom, non-pyrogenic tissue culture microtiter plate (Costar, Cambridge, Mass.) to reach a final volume of 200 μL/well. The plate was incubated on a shaker at 37° C. for 24 hours. All assays were performed in triplicate. Following the incubation period, plates were read in an ELISA plate reader at 595 nm wavelength to determine the minimum inhibitory concentration (MIC), i.e., the lowest concentration required to reduce the optical density at 595 nm to below 0.1 OD.

gram-negative bacteria = conditions: broad range of gram-negative bacteria; concentrations as low as; cited from earlier work
[2] = tested on: Candida albicans and Candida parapsilosis; conditions: 10^−6 M; pH 7.0 or 5.5; cited from earlier work
[3] = tested on: human, rabbit and sheep red blood cells and several human tumor cell lines; conditions: cited from earlier work
[4] = tested on: Staphylococcus aureus (four strains), Staphylococcus epidermidis, Streptococcus faecalis, Bacillus subtilis, Micrococcus lysodeikticus, and Listeria …; conditions: 160 μg/ml; pH of either 7.0 or 5.5; cited from earlier work

Molecule	improvement in mortality compared with dextrose-treated controls (Candida albicans, SLU-1)	Radial Diffusion (pmol to achieve 30 mm^2 zone C. albicans SLU1) (Candida albicans SLU-1)	Broth Microdilution (MIC values in μg/mL C. albicans SLU1) [1] [µg/mL]	concentration exhibiting anti-bacterial activity (gram-negative bacteria)	toxic effect on fungi [2]	toxicity to higher eukaryotic cells [3]	toxic effect on gram-positive organisms [4]
CC[C@@H](C)[C@@H](NC(=O)[C@@H](CC(C)C)NC(=O)[C@@H](Cc1c[nH]c2ccccc12)NC(=O)[C@@H](CCCCN)NC(=O)CCCCCCCCCCN)C(=O)N[C@H](CCC(N)=O)C(=O)N[C@H](CC(C)C)C(=O)N[C@H](Cc1ccccc1)C(=O)N[C@H](Cc1c[nH]cn1)C(=O)N[C@H](CCCCN)C(=O)N[C@H](CCCCN)C(N)=O [XMP.496] (H-[Aun][dK][dW][dL][dI][dQ][dL][dF][dH][dK][dK]-NH2)	did not exhibit statistically significant improvement	434 pmol	1	–	–	–	–
CC[C@@H](C)[C@@H](NC(=O)[C@@H](CC(C)C)NC(=O)[C@@H](Cc1c[nH]c2ccccc12)NC(=O)[C@@H](CCCCN)NC(=O)CCCC[C@@H]1SC[C@@H]2NC(=O)N[C@@H]21)C(=O)N[C@H](CCC(N)=O)C(=O)N[C@H](CC(C)C)C(=O)N[C@H](Cc1ccccc1)C(=O)N[C@H](Cc1c[nH]cn1)C(=O)N[C@H](CCCCN)C(=O)N[C@H](CCCCN)C(N)=O [XMP.519]	did not exhibit statistically significant improvement	170 pmol	1	–	–	–	–
CC[C@@H](C)[C@@H](NC(=O)[C@@H](CC(C)C)NC(=O)[C@@H](Cc1c[nH]c2ccccc12)NC(=O)[C@@H](CCCCN)NC(=O)c1ccc2c(c1)-c1ccccc1-2)C(=O)N[C@H](CCC(N)=O)C(=O)N[C@H](CC(C)C)C(=O)N[C@H](Cc1ccccc1)C(=O)N[C@H](Cc1c[nH]cn1)C(=O)N[C@H](CCCCN)C(=O)N[C@H](CCCCN)C(N)=O [XMP.534]	did not exhibit statistically significant improvement	>3,371 pmol	4	–	–	–	–
B1	–	–	–	10^−8 to 10^−9 M	no toxic effect	non-toxic	no toxic effect
